ChEMBL document CHEMBL2150980 (Eur J Med Chem, 2012)

Target: T1, Alpha-1D adrenergic receptor (Rattus norvegicus, UniProt P23944)
T1 sequence (P23944 whole entry): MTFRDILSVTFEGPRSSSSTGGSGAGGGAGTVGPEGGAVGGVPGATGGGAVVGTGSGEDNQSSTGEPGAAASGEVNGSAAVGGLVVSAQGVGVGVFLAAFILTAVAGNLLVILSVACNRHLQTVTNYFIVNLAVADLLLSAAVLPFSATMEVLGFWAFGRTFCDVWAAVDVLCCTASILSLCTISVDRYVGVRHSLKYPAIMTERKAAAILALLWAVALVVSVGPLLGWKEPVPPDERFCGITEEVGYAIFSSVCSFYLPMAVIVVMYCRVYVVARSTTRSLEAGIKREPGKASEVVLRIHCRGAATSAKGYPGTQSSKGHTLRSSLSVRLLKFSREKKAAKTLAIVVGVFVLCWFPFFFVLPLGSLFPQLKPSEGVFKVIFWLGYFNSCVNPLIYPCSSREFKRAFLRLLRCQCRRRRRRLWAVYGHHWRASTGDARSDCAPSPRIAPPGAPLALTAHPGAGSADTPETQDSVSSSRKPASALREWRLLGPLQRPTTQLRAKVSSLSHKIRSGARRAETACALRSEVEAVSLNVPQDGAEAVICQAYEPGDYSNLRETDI
Assay: Antagonist activity at alpha1D adrenoceptor in Sprague-Dawley rat thoracic aorta assessed as inhibition of noradrenaline-induced contractions after 30 mins
Format: functional, tissue-based
Details: read-out: pA2 (converted)

Kb	Structure (SMILES)
11.7 nM	COc1cccc(OC)c1OCCNC[C@H]1COc2cccc(OC)c2O1.Cl
51.3 nM	COc1cccc(OC)c1OCCNC[C@H]1COc2cccc(O)c2O1.Cl
9.33 nM	COc1cccc(OC)c1OCCNC[C@H]1COc2cccc(F)c2O1.Cl
3.02 nM	COc1cccc(OC)c1OCCNC[C@H]1COc2cccc(Cl)c2O1.Cl
5.75 nM	COc1cccc(OC)c1OCCNC[C@H]1COc2c(OC)cccc2O1.Cl
